In ChEMBL document CHEMBL4334449, “Jorunnamycin A from Xestospongia sp. Suppresses Epithelial to Mesenchymal Transition and Sensitizes Anoikis in Human Lung Cancer Cells” (J Nat Prod, 2019):
The source made the active and inactive calls. The calls are words filed in the database; no cut-off is given here.

Tests used:
NCI-H460 [1] = assay: Down regulation of caveolin-1 human H460 cells under detachment conditions at 0.05 to 0.5 uM after 12 hrs by Western blot analysis; format: functional, cell-based
NCI-H460 [2] = assay: Induction of apoptosis in human H460 cells assessed as accumulation of necrotic cells at 0.05 to 1 uM after 24 hrs by Hoechst 33342/propidium iodide staining based fluorescent microscopic method; format: functional, cell-based
NCI-H292 [3] = assay: Induction of apoptosis in human NCI-H292 cells under detachment conditions assessed as viable cells at 0.5 uM after 24 hrs by Annexin V-FITC/propidium iodide staining-based flow cytometric analysis (reference value: 40.55%); format: functional; settings: NCI-H292, 24 h, read-out: Activity
NCI-H460 [4] = assay: Inhibition of epithelial-mesenchymal transition in human H460 cells under detachment conditions assessed as decrease in vimentin protein level 0.05 to 0.5 uM after 12 hrs by Western blot analysis; format: functional, cell-based
NCI-H23 [5] = assay: Antiproliferative activity against human H23 cells assessed as reduction in cell viability at 0.05 to 0.5 uM; format: functional, cell-based
NCI-H23 [6] = assay: Induction of anoikis in human H23 cells under detachment conditions assessed as reduction in cell viability at 0.05 uM up to 24 hrs by XTT assay; format: functional, cell-based
NCI-H23 [7] = assay: Induction of anoikis in human H23 cells harboring with p53 mutant under detachment conditions assessed as decrease in MCL-1 level at 0.05 to 0.5 uM after 12 hrs by Western blot analysis; format: functional, cell-based
NCI-H292 [8] = assay: Antiproliferative activity against human NCI-H292 cells under detachment conditions assessed as reduction in cell viability at 0.05 to 0.5 uM up to 24 hrs by XTT assay; format: functional, cell-based
NCI-H460 [9] = assay: Induction of anoikis in human H460 cells under detachment conditions assessed as decrease in MCL-1 level at 0.05 to 0.5 uM after 12 hrs by Western blot analysis; format: functional, cell-based
NCI-H460 [10] = assay: Induction of apoptosis in human H460 cells at 1 uM after 24 hrs by Hoechst 33342/propidium iodide staining based fluorescent microscopic method; format: functional, cell-based
NCI-H460 [11] = assay: Antiproliferative activity against human H460 cells assessed as reduction in cell viability at 0.1 to 0.5 uM after at 72 hrs by crystal violet staining assay; format: functional, cell-based
NCI-H460 [12] = assay: Induction of apoptosis in human H460 cells under detachment conditions assessed as necrotic cells at 0.5 uM after 24 hrs by Annexin V-FITC/propidium iodide staining-based flow cytometric analysis (reference value: 1.58%); format: functional
NCI-H292 [13] = assay: Antiproliferative activity against human NCI-H292 cells assessed as reduction in cell viability at 0.05 to 0.5 uM; format: functional, cell-based
NCI-H460 [14] = assay: Induction of anoikis in human H460 cells under detachment conditions assessed as increase in Bax level at 0.05 to 0.5 uM after 12 hrs by Western blot analysis; format: functional, cell-based
NCI-H23 [15] = assay: Induction of apoptosis in human H23 cells under detachment conditions assessed as necrotic cells at 0.5 uM after 24 hrs by Annexin V-FITC/propidium iodide staining-based flow cytometric analysis (reference value: 0.41%); format: functional
NCI-H23 [16] = assay: Inhibition of epithelial-mesenchymal transition in human H23 cells harboring with p53 mutant under detachment conditions assessed as decrease in vimentin protein level 0.05 to 0.5 uM after 12 hrs by Western blot analysis; format: functional, cell-based
NCI-H23 [17] = assay: Inhibition of colony formation in human H23 cells under detachment conditions assessed as reduction in number of colonies at 0.1 to 0.5 uM after 14 days by microscopic method; format: functional, cell-based
NCI-H460 [18] = assay: Induction of apoptosis in human H460 cells under detachment conditions at 0.05 to 0.5 uM after 24 hrs by Hoechst 33342/propidium iodide staining based fluorescent microscopic method; format: functional, cell-based
NCI-H460 [19] = assay: Inhibition of colony formation in human H460 cells under detachment conditions assessed as reduction in number of colonies at 0.1 to 0.5 uM after 14 days by microscopic method; format: functional, cell-based
NCI-H23 [20] = assay: Induction of apoptosis in human H23 cells under detachment conditions assessed as viable cells at 0.5 uM after 24 hrs by Annexin V-FITC/propidium iodide staining-based flow cytometric analysis (reference value: 69.96%); format: functional; settings: NCI-H23, 24 h, read-out: Activity
NCI-H460 [21] = assay: Induction of anoikis in human H460 cells under detachment conditions at 0.05 to 0.5 uM after 24 hrs by Hoechst 33342/propidium iodide staining based fluorescent microscopic method; format: functional, cell-based
NCI-H23 [22] = assay: Inhibition of epithelial-mesenchymal transition in human H23 cells harboring with p53 mutant under detachment conditions assessed as increase in E-cadherin protein level 0.05 to 0.5 uM after 12 hrs by Western blot analysis; format: functional, cell-based
NCI-H292 [23] = assay: Inhibition of colony formation in human NCI-H292 cells under detachment conditions assessed as reduction in size of colonies at 0.1 to 0.5 uM after 14 days by microscopic method; format: functional, cell-based
NCI-H460 [24] = assay: Inhibition of epithelial-mesenchymal transition in human H460 cells under detachment conditions assessed as increase in E-cadherin protein level 0.05 to 0.5 uM after 12 hrs by Western blot analysis; format: functional, cell-based
NCI-H460 [25] = assay: Antiproliferative activity against human H460 cells assessed as reduction in cell viability at 0.05 to 0.5 uM after 24 hrs by MTT assay; format: functional, cell-based
[26] = target: Serine/threonine-protein kinase AKT (Homo sapiens) (UniProt P31751+Q9Y243+P31749); assay: Inhibition of AKT phosphorylation in human H460 cells under detachment conditions at 0.05 to 0.5 uM after 12 hrs by Western blot analysis; format: cell-based
Chain of Serine/threonine-protein kinase AKT (Homo sapiens) (P31749 whole entry, looked up): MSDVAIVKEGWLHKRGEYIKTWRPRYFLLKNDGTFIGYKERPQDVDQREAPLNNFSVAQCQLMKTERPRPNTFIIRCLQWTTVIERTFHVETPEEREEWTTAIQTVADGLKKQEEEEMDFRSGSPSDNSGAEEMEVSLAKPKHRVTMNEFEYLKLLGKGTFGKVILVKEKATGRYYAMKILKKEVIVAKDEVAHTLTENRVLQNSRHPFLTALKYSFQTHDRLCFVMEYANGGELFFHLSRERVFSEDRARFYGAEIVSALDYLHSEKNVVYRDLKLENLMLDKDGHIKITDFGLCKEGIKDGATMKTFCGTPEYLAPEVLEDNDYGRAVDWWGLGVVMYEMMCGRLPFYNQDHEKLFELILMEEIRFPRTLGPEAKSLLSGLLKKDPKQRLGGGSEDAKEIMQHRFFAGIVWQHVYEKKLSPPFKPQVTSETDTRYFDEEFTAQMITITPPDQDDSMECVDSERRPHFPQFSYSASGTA
Chain of Serine/threonine-protein kinase AKT (Homo sapiens) (P31751 whole entry, looked up): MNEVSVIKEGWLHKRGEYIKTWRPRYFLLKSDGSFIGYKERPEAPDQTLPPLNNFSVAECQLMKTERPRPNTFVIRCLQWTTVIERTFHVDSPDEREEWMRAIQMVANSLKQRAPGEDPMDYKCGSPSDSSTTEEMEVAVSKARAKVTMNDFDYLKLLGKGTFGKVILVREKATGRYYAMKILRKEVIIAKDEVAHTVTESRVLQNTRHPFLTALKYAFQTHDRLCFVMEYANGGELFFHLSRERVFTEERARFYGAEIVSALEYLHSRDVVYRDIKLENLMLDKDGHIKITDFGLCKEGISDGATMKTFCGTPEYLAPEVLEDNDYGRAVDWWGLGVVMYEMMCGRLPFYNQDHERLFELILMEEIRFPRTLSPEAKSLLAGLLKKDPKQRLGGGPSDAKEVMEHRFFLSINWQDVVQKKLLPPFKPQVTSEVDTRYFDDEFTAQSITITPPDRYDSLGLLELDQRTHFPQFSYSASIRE
Chain of Serine/threonine-protein kinase AKT (Homo sapiens) (Q9Y243 whole entry, looked up): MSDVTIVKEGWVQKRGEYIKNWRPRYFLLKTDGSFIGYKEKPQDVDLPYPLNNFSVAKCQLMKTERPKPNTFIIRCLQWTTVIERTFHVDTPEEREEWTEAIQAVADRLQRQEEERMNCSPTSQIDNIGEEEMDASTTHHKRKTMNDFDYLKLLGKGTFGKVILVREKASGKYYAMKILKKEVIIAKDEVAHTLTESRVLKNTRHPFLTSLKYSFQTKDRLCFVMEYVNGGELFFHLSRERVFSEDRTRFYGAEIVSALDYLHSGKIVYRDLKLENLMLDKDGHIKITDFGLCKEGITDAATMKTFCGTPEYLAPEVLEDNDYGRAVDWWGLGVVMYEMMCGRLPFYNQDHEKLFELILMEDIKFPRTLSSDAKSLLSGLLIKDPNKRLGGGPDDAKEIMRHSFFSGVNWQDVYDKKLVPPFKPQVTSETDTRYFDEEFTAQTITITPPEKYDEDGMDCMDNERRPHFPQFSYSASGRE

NCI-H460 [27] = assay: Inhibition of colony formation in human H460 cells under detachment conditions assessed as reduction in size of colonies at 0.1 to 0.5 uM after 14 days by microscopic method; format: functional, cell-based
NCI-H23 [28] = assay: Induction of apoptosis in human H23 cells under detachment conditions assessed as early apoptotic cells at 0.5 uM after 24 hrs by Annexin V-FITC/propidium iodide staining-based flow cytometric analysis (reference value: 26.81%); format: functional
NCI-H460 [29] = assay: Induction of anoikis in human H460 cells […] under detachment conditions assessed as effect on P53 level at 0.05 to 0.5 uM after 12 hrs by Western blot analysis; format: functional, cell-based
NCI-H460 [30] = assay: Induction of apoptosis in human H460 cells at 0.05 to 0.5 uM after 24 hrs by Hoechst 33342/propidium iodide staining based fluorescent microscopic method; format: functional, cell-based

Structure (SMILES): COC1=C(C)C(=O)C2=C(C1=O)[C@@H]1[C@@H]3CC4=C(C(=O)C(OC)=C(C)C4=O)[C@H](CO)N3[C@@H](C#N)[C@H](C2)N1C [JOURNNAMYCIN A]
- Activity (NCI-H460 [1]): Active
- Activity (NCI-H460 [2]): inactive
- viability at 0.5 µM (NCI-H292 [3]): 25.8%
- inhibition (NCI-H460 [4]): Active
- Activity (NCI-H23 [5]): inactive
- Activity (NCI-H23 [6]): Active
- Activity (NCI-H23 [7]): Active
- Activity (NCI-H292 [8]): Active
- Activity (NCI-H460 [9]): Active
- Activity (NCI-H460 [10]): Active
- Activity (NCI-H460 [11]): Active
- Activity (NCI-H460 [12]): 24.2%
- Activity (NCI-H292 [13]): inactive
- Activity (NCI-H460 [14]): Active
- Activity (NCI-H23 [15]): 0.49%
- inhibition (NCI-H23 [16]): Active
- inhibition (NCI-H23 [17]): Active
- Activity (NCI-H460 [18]): Active
- inhibition (NCI-H460 [19]): Active
- viability at 0.5 µM (NCI-H23 [20]): 44.6%
- Activity (NCI-H460 [21]): Active
- inhibition (NCI-H23 [22]): Active
- inhibition (NCI-H292 [23]): Active
- inhibition (NCI-H460 [24]): Active
- Activity (NCI-H460 [25]): inactive
- inhibition [26]: Active
- inhibition (NCI-H460 [27]): Active
- Activity (NCI-H23 [28]): 37.79%
- Activity (NCI-H460 [29]): inactive
- Activity (NCI-H460 [30]): inactive
